One compound from ChEMBL document CHEMBL1128857 can be followed below.

The assay deals with T1, Xaa-Pro dipeptidase (Homo sapiens) (UniProt P12955).
T1 sequence (whole entry): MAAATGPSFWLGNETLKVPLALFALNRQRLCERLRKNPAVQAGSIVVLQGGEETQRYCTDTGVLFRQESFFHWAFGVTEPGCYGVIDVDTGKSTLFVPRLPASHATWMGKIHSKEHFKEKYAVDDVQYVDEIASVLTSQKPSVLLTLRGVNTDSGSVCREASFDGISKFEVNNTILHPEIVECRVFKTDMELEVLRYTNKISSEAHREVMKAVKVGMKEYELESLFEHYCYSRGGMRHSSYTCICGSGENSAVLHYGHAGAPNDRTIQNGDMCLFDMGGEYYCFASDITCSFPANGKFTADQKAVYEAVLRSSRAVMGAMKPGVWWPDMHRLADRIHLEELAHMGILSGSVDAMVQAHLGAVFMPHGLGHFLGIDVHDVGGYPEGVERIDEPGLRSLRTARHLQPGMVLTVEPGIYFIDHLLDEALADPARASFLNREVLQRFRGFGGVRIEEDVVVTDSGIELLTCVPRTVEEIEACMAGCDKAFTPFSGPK
Description: Inhibitory constant for inhibition of prolidase in the second phase of biphasic inhibition

As to `C=C(OP(=O)(O)O)C(=O)O`, the Ki' worked out at 240 µM.
